Test results taken from PubChem BioAssay (NCI).
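Cultured in 96-well plates, cells were exposed to test compound for 48 hours across five concentrations. GI50 is the concentration that inhibits growth by half. The concentration for full growth arrest is given as TGI.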

Assays:
Test in all cases: NCI anticancer screen, dose series, 48 h
U251 CNS = test system: U251 CNS
SR leukemia = test system: SR leukemia
PC-3 prostate = test system: PC-3 prostate
SF-268 CNS = test system: SF-268 CNS
HT29 colon = test system: HT29 colon
ACHN renal = test system: ACHN renal
TK-10 renal = test system: TK-10 renal
A549 NSCLC = test system: A549 NSCLC
M14 melanoma = test system: M14 melanoma
NCI-H23 lung = test system: NCI-H23 lung
MOLT-4 leukemia = test system: MOLT-4 leukemia
BT-549 breast = test system: BT-549 breast
UO-31 renal = test system: UO-31 renal
HCC-2998 colon = test system: HCC-2998 colon
NCI/ADR-RES ovarian = test system: NCI/ADR-RES ovarian
MDA-MB-435 = test system: MDA-MB-435
OVCAR-8 ovarian = test system: OVCAR-8 ovarian
COLO 205 colon = test system: COLO 205 colon
HL-60(TB) leukemia = test system: HL-60(TB) leukemia
CAKI-1 renal = test system: CAKI-1 renal
KM12 colon = test system: KM12 colon
EKVX NSCLC = test system: EKVX NSCLC
RXF 393 renal = test system: RXF 393 renal
MCF7 breast = test system: MCF7 breast
K-562 leukemia = test system: K-562 leukemia
CCRF-CEM leukemia = test system: CCRF-CEM leukemia
HCT-15 colon = test system: HCT-15 colon
SW-620 colon = test system: SW-620 colon
HOP-62 NSCLC = test system: HOP-62 NSCLC
HOP-92 NSCLC = test system: HOP-92 NSCLC
NCI-H226 lung = test system: NCI-H226 lung
UACC-257 melanoma = test system: UACC-257 melanoma
NCI-H460 lung = test system: NCI-H460 lung
OVCAR-5 ovarian = test system: OVCAR-5 ovarian
SN12C renal = test system: SN12C renal
SK-MEL-28 melanoma = test system: SK-MEL-28 melanoma
SF-539 CNS = test system: SF-539 CNS
SF-295 CNS = test system: SF-295 CNS
MDA-MB-231 breast = test system: MDA-MB-231 breast
OVCAR-3 ovarian = test system: OVCAR-3 ovarian
RPMI-8226 leukemia = test system: RPMI-8226 leukemia
IGROV1 ovarian = test system: IGROV1 ovarian
SNB-19 CNS = test system: SNB-19 CNS
A498 renal = test system: A498 renal
T-47D breast = test system: T-47D breast
OVCAR-4 ovarian = test system: OVCAR-4 ovarian
786-0 renal = test system: 786-0 renal
UACC-62 melanoma = test system: UACC-62 melanoma
MALME-3M melanoma = test system: MALME-3M melanoma
NCI-H522 lung = test system: NCI-H522 lung
HS 578T breast = test system: HS 578T breast
DU-145 prostate = test system: DU-145 prostate
SNB-75 CNS = test system: SNB-75 CNS
LOX IMVI melanoma = test system: LOX IMVI melanoma
HCT-116 colon = test system: HCT-116 colon
SK-MEL-5 melanoma = test system: SK-MEL-5 melanoma
SK-OV-3 ovarian = test system: SK-OV-3 ovarian
SK-MEL-2 melanoma = test system: SK-MEL-2 melanoma

CCCCNC(=S)/N=C/c1c(O)c2ccccc2[nH]c1=O
TGI (U251 CNS): > 10 µM
TGI (SR leukemia): > 10 µM
TGI (PC-3 prostate): > 10 µM
TGI (SF-268 CNS): > 10 µM
TGI (HT29 colon): > 10 µM
TGI (ACHN renal): > 10 µM
TGI (TK-10 renal): > 10 µM
TGI (A549 NSCLC): > 10 µM
TGI (M14 melanoma): > 10 µM
TGI (NCI-H23 lung): > 10 µM
TGI (MOLT-4 leukemia): > 10 µM
TGI (BT-549 breast): > 10 µM
TGI (UO-31 renal): > 10 µM
TGI (HCC-2998 colon): > 10 µM
TGI (NCI/ADR-RES ovarian): > 10 µM
TGI (MDA-MB-435): > 10 µM
TGI (OVCAR-8 ovarian): > 10 µM
TGI (COLO 205 colon): > 10 µM
TGI (HL-60(TB) leukemia): > 10 µM
TGI (CAKI-1 renal): > 10 µM
TGI (KM12 colon): > 10 µM
TGI (EKVX NSCLC): > 10 µM
TGI (RXF 393 renal): > 10 µM
TGI (MCF7 breast): > 10 µM
TGI (K-562 leukemia): > 10 µM
TGI (CCRF-CEM leukemia): > 10 µM
TGI (HCT-15 colon): > 10 µM
TGI (SW-620 colon): > 10 µM
TGI (HOP-62 NSCLC): > 10 µM
TGI (HOP-92 NSCLC): > 10 µM
TGI (NCI-H226 lung): > 10 µM
TGI (UACC-257 melanoma): > 10 µM
TGI (NCI-H460 lung): > 10 µM
TGI (OVCAR-5 ovarian): > 10 µM
TGI (SN12C renal): > 10 µM
TGI (SK-MEL-28 melanoma): > 10 µM
TGI (SF-539 CNS): > 10 µM
TGI (SF-295 CNS): > 10 µM
TGI (MDA-MB-231 breast): > 10 µM
TGI (OVCAR-3 ovarian): > 10 µM
TGI (RPMI-8226 leukemia): > 10 µM
TGI (IGROV1 ovarian): > 10 µM
TGI (SNB-19 CNS): > 10 µM
TGI (A498 renal): > 10 µM
TGI (T-47D breast): > 10 µM
TGI (OVCAR-4 ovarian): > 10 µM
TGI (786-0 renal): > 10 µM
TGI (UACC-62 melanoma): > 10 µM
TGI (MALME-3M melanoma): > 10 µM

COC(=O)[C@@H](C)C[C@H](Cc1ccccc1)NC(=O)c1csc([C@@H](C[C@H](C(C)C)N(C)C(=O)[C@H](C)NC(=O)[C@H]2CCCCN2C)OC(C)=O)n1
GI50 (NCI-H522 lung): 0.384 µM
TGI (NCI-H522 lung): 1.35 µM
GI50 (U251 CNS): 1.58 µM
TGI (U251 CNS): > 25 µM
GI50 (SR leukemia): 0.452 µM
TGI (SR leukemia): > 25 µM
GI50 (PC-3 prostate): 0.821 µM
TGI (PC-3 prostate): > 25 µM
GI50 (SF-268 CNS): 1.65 µM
TGI (SF-268 CNS): > 25 µM
GI50 (HS 578T breast): 1.39 µM
TGI (HS 578T breast): > 25 µM
GI50 (HT29 colon): 0.816 µM
TGI (HT29 colon): > 25 µM
GI50 (DU-145 prostate): 1.05 µM
TGI (DU-145 prostate): > 25 µM
GI50 (SNB-75 CNS): 0.47 µM
TGI (SNB-75 CNS): 1.71 µM
GI50 (LOX IMVI melanoma): 1.74 µM
TGI (LOX IMVI melanoma): > 25 µM
GI50 (TK-10 renal): > 25 µM
TGI (TK-10 renal): > 25 µM
GI50 (A549 NSCLC): 8.67 µM
TGI (A549 NSCLC): > 25 µM
GI50 (M14 melanoma): 0.859 µM
TGI (M14 melanoma): 11.3 µM
GI50 (NCI-H23 lung): 7.55 µM
TGI (NCI-H23 lung): > 25 µM
GI50 (HCT-116 colon): 0.774 µM
TGI (HCT-116 colon): > 25 µM
GI50 (MOLT-4 leukemia): 2.22 µM
TGI (MOLT-4 leukemia): > 25 µM
GI50 (BT-549 breast): 0.979 µM
TGI (BT-549 breast): 17.5 µM
GI50 (UO-31 renal): 19.2 µM
TGI (UO-31 renal): > 25 µM
GI50 (HCC-2998 colon): 1.75 µM
TGI (HCC-2998 colon): > 25 µM
GI50 (SK-MEL-5 melanoma): 0.86 µM
TGI (SK-MEL-5 melanoma): > 25 µM
GI50 (NCI/ADR-RES ovarian): > 25 µM
TGI (NCI/ADR-RES ovarian): > 25 µM
GI50 (MDA-MB-435): 0.121 µM
TGI (MDA-MB-435): 0.522 µM
GI50 (OVCAR-8 ovarian): 3.67 µM
TGI (OVCAR-8 ovarian): > 25 µM
GI50 (COLO 205 colon): 1.12 µM
TGI (COLO 205 colon): 20.2 µM
GI50 (KM12 colon): 1.11 µM
TGI (KM12 colon): > 25 µM
GI50 (EKVX NSCLC): 5.74 µM
TGI (EKVX NSCLC): > 25 µM
GI50 (RXF 393 renal): 1 µM
TGI (RXF 393 renal): 24.2 µM
GI50 (MCF7 breast): 0.437 µM
TGI (MCF7 breast): > 25 µM
GI50 (K-562 leukemia): 0.278 µM
TGI (K-562 leukemia): > 25 µM
GI50 (CCRF-CEM leukemia): 1.05 µM
TGI (CCRF-CEM leukemia): > 25 µM
GI50 (HCT-15 colon): 3.37 µM
TGI (HCT-15 colon): > 25 µM
GI50 (SW-620 colon): 0.861 µM
TGI (SW-620 colon): > 25 µM
GI50 (HOP-62 NSCLC): 3.27 µM
TGI (HOP-62 NSCLC): > 25 µM
GI50 (HOP-92 NSCLC): 0.982 µM
TGI (HOP-92 NSCLC): > 25 µM
GI50 (NCI-H226 lung): > 25 µM
TGI (NCI-H226 lung): > 25 µM
GI50 (UACC-257 melanoma): > 25 µM
TGI (UACC-257 melanoma): > 25 µM
GI50 (NCI-H460 lung): 1.18 µM
TGI (NCI-H460 lung): > 25 µM
GI50 (SK-OV-3 ovarian): 11 µM
TGI (SK-OV-3 ovarian): > 25 µM
GI50 (OVCAR-5 ovarian): 9.48 µM
TGI (OVCAR-5 ovarian): > 25 µM
GI50 (SN12C renal): 2.08 µM
TGI (SN12C renal): > 25 µM
GI50 (SK-MEL-28 melanoma): > 25 µM
TGI (SK-MEL-28 melanoma): > 25 µM
GI50 (SF-539 CNS): 1.42 µM
TGI (SF-539 CNS): 20.6 µM
GI50 (SK-MEL-2 melanoma): 0.929 µM
TGI (SK-MEL-2 melanoma): > 25 µM
GI50 (SF-295 CNS): 3.95 µM
TGI (SF-295 CNS): > 25 µM
GI50 (MDA-MB-231 breast): 1.24 µM
TGI (MDA-MB-231 breast): > 25 µM
GI50 (OVCAR-3 ovarian): 0.551 µM
TGI (OVCAR-3 ovarian): > 25 µM
GI50 (RPMI-8226 leukemia): 0.567 µM
TGI (RPMI-8226 leukemia): > 25 µM
GI50 (IGROV1 ovarian): 1.14 µM
TGI (IGROV1 ovarian): > 25 µM
GI50 (SNB-19 CNS): 0.901 µM
TGI (SNB-19 CNS): > 25 µM
GI50 (A498 renal): 1.87 µM
TGI (A498 renal): 14.1 µM
GI50 (OVCAR-4 ovarian): 2.05 µM
TGI (OVCAR-4 ovarian): > 25 µM
GI50 (786-0 renal): 1.05 µM
TGI (786-0 renal): > 25 µM
GI50 (UACC-62 melanoma): 1.27 µM
TGI (UACC-62 melanoma): > 25 µM

ClCC[N+]12CC[N+](CCCl)(CC1)C2 (tested in a mixture with another compound)
GI50 (SNB-75 CNS): 58.6 µM
GI50 (RXF 393 renal): 85.4 µM
GI50 (SK-MEL-2 melanoma): 43.2 µM

CC(C)(C)c1cc(C#N)cc(Br)c1OP(=O)(Oc1c(Br)cc(C#N)cc1C(C)(C)C)c1ccccc1
GI50 (SR leukemia): 10.5 µM
